Experimental data from patent US9777048B2, “Use of PEDF-derived polypeptides for treating osteoarthritis” (MacKay Memorial Hospital, priority 2012, dated 2017).

Columns and labels:
osteoarthritis = test: Treating osteoarthritis in a subject (experiments of prior application Ser. No. 13/428,996 and present application); assay type: in vivo; settings: stated without data; based on prior and present application
From the text: Prior experiments conducted by the present inventors, such as those disclosed in the co-pending U.S. application Ser. No. 13/428,996 (the entirety of which is incorporated herein by reference) and experiments provided hereinbelow, reveal that several short, synthetic PEDF peptides derived from the 39-mer, are capable of treating osteoarthritis in a subject.

[1] = tested on: primary chondrocytes from rat articular cartilage; test: Primary articular chondrocyte proliferation in vitro; assay type: cell-based, Sprague-Dawley rats; settings: 50 nM peptide; for Aggrecan Labeling Index (%): rat articular chondrocyte monolayer culture, 12 days, mean±SEM, *P<0.01 vs untreated
Protocol: Articular cartilage was harvested from femoral condyles (the anterior, posterior and lateral areas) of adult 8-wk-old male Sprague-Dawley rats. Care was taken to avoid contamination with synovium and to disruption of the bony structures during the sampling process. Dissected tissue was cut into small (about 0.5 mm^3) pieces and digested sequentially by pronase (70 U/ml, 1 hour at 37° C.) and collagenase (300 U/ml, 3 hours at 37° C.). After digestion, collagenase was removed by a single wash in sterile phosphate-buffered saline (PBS), followed by two further washes in DMEM supplemented with 2% FBS. For primary culture, 6000 trypan blue-negative cells per well were plated on 10 μg/ml fibronectin-coated coverslips in a 6-well plate in 10% FBS-DMEM supplemented with 1% penicillin/streptomycin. The next day, the medium was changed to the standard expansion medium (consisting of 10% FBS-DMEM, 0.1 mM ascorbic acid, 0.5 mg/ml L-glucose, 100 mM HEPES, 1 mM sodium pyruvate, 2 mM L-glutamine and antibiotics) supplemented with or without 50 nM PEDF peptide). The medium was replaced every 3 days for 12 days.
(§1) For immunofluorescence study, the specimens were blocked with 10% goat serum and 5% BSA for 1 hour. Immunostaining was done using primary antibodies against aggrecan (1:100 dilution), type II collagen (1:100 dilution), and BrdU (1:100 dilution) at 37° C. for 2 hours, followed by incubation with the appropriate rhodamine- or FITC-conjugated donkey IgG for 1 hour at room temperature. Nuclei were located by counterstaining with Hoechst 33258 for 7 min. Images were captured using a Zeiss epifluorescence microscope with a CCD camera. Blinded quantification was performed in triplicate by manually counting cells from 20 randomly-selected fields in each section.
Primary chondrocytes were isolated from rat articular cartilage and cultivated in the presence or absence of the present PEDF peptides to elucidate the stimulating effect of the present PEDF peptides on chondrocyte proliferation.
By contrast, in the vehicle group, the colonies are much smaller in the absence of PEDF peptides. The chondrocyte identity of cells within the colony was confirmed by aggrecan immunostaining (FIG. 4A, inserts). The level of aggrecan-positive cells in the monolayer culture (FIG. 4B) were quantified from 20 randomly selected fields, and the aggrecan labeling index (%) was computed as the number of aggrecan-labeled cells divided by the total number of cells (nucleus labeling by Hoechst 33258). Results are summarized in Table 2; *P<0.01 versus untreated cells.

[2] = tested on: chondrocytes in damaged articular cartilage (MIA-induced osteoarthritis); test: MIA-induced knee osteoarthritis in rats: chondrocyte proliferation and cartilage regeneration in vivo; parameters: species or system Sprague-Dawley rats; settings: for BrdU/Aggrecan Labeling Index (%): rat MIA knee, 0.2 mM peptide in 25 μl of 5% HA (HA group: 5% HA alone), intra-articular on day 8, 12, 16, 20 post-MIA, mean±SEM, *P<0.0001 vs vehicle/HA; for H&E histology of knee joint (morphological changes associated with osteoarthritis): specimens day-18 and day-25 post-MIA injection, FIG. 1; for Chondrocytes in cartilage layers, microscopic images: knee specimens 25 days after MIA injection, FIG. 2
Protocol: Animal models of osteoarthritis were established by intra-articular injection of MIA. Specifically, adult 10-wk-old male Sprague-Dawley rats (initial body wt=312±11 g) were anesthetized with an intraperitoneal injection of xylazine (10 mg/kg), followed by a single intra-articular injection of MIA (1 mg of MIA in 25 μl of sterile saline) in the right knee. In particular, the MIA solution was injected through the patellar ligament by using a 27G needle with the leg flexed at a 90° angle at the knee.
For the detection of in vivo cell proliferation, BrdU was reconstituted in DMSO as stock (80 mM). 150 μl of BrdU mixed with 350 μl of PBS was intraperitoneally injected into rat at 16 hours prior to euthanasia. DNA synthesis was then assessed by BrdU labeling with anti-BrdU antibodies according to procedures set forth below.
The knee joints were dissected and the surrounding soft tissue was removed. Specimens were fixed in 4% paraformaldehyde and then decalcified with Shandon TBD-2 decalcifier (Thermo Scientific; Logan, Utah). The joints were then sectioned mid-sagittally and embedded in paraffin blocks. Sections (5 μm in thickness) were longitudinally cut.
Before use, fixed samples were de-pa raffinized in xylene and rehydrated in a graded series of ethanol. The sample were then stained with hematoxylin and eosin (H&E) or used for immunohistochemical examination. 20 sections per knee were carefully prepared so as to include the most severely degenerated area.
Paraffin-embedded joint specimens were deparaffinized in xylene and rehydrated in a graded series of ethanol. Deparaffinized specimens were then exposed to 1 N HCl at room temperature for 1 hour for subsequent immunofluorescence study.
as §1
Knee osteoarthritis is a common chronic degenerative disease characterized by loss of articular cartilage. Injection of mono-iodoacetate (MIA), an inhibitor of glycolysis, into the femorotibial joint space of rodents has been reported to induce loss of articular cartilage similar to that noted in human OA. It has been established that extensive chondrocyte degeneration/necrosis usually arises at 7 days after MIA injection. Therefore, PEDF peptide treatment was started on day 8 post-MIA injection, so as to elucidate whether the present PEDF peptides promote cartilage regeneration.
Rats were randomly assigned to 6 experimental groups (n=6, each group) and treated as follows. In the HA group, rats received 25 μl of 5% hyaluronic acid injection. In the Vehicle/HA group, rats were treated with DMSO vehicle re-dissolved in 25 μl of 5% HA. As to the 29-mer/HA, 24-mer/HA, 20-mer/HA, and 18-mer/HA groups, rats received 0.2 mM PEDF peptide (29-mer, 24-mer, 20-mer or 18-mer) re-dissolved in 25 μl of 5% HA. Treatments were applied by way of a single intra-articular injection once on day-8, 12, 16 and 20, respectively, post-MIA injection.
Quantitative analysis was performed as described above from 3 sections per knee joint specimen, and 6 rats at each group. The BrdU/aggrecan labeling index (%) was computed as the number of BrdU- and aggrecan-double positive cells divided by the total number of aggrecan-positive cells. Results are summarized in Table 1; *P<0.0001 versus the vehicle/HA group.

[3] = tested on: mesenchymal stem cells (MSCs); test: Chondrogenic differentiation of MSCs: aggrecan immunostaining; assay type: cell-based, Sprague-Dawley rats; settings: rat MSCs in chondrogenic medium plus 50 nM peptide, 1 week; mean±SEM; *P<0.0001 vs vehicle
Protocol: Adult 8-wk-old male Sprague-Dawley rats were anesthetized with an intraperitoneal injection of xylazine (10 mg/kg). Femurs were aseptically harvested, washed in a mixture of PBS and antibiotics for 5 minutes, dissected of all soft tissue, transected at their epiphysis, and their marrow cavity was rinsed repeatedly with a mixture of heparin and DMEM. The harvested cells were centrifuged at 1000×g for 10 minutes. Cell pellets were resuspended with DMEM, and then the cell suspension was transferred to a 15-ml centrifuge tube containing 5 ml of Percoll (1.073 g/ml). After centrifugation at 1500×g for 30 minutes, the mononuclear cells in the middle layer were separated, washed three times with PBS and then resuspended in low-glucose DMEM with 10% heat-inactivated FBS and 1% penicillin/streptomycin. Cells were then incubated with 95% air and 5% CO2 at 37° C.; the medium was replaced every 4 days. Unattached cells were discarded and adherent cells were retained. The primary mesenchymal stem cells (MSCs) grew to approximately 80%-90% confluence after culture for 1 week.
For inducing the chondrogenic differentiation of MSCs, 5×10^5 expanded MSCs were exposed to chondrogenic medium (high-glucose DMEM with 100 nM dexamethasone, 0.17 mM ascorbic acid-2 phosphate, 10 μg/ml of insulin, 5 μg/ml of transferrin, 5 ng/ml selenium, 1 mM sodium pyruvate, 2 mM L-glutamine, and 2% FBS) supplemented with 10 ng/ml TGF-β2 (R&D Systems; Minneapolis, Minn.). […]
For immunofluorescence study, the specimens were blocked with 10% goat serum and 5% BSA for 1 hour. […] Blinded quantification was performed in triplicate by manually counting cells from 20 randomly-selected fields in each section.
Immunostaining for aggrecan and type II collagen was also performed to investigate the pro-differentiation activity of the present PEDF peptides. The level of aggrecan-positive cells were quantified from 20 randomly selected fields, and the aggrecan labeling index (%) was computed as the number of aggrecan-labeled cells divided by the total number of cells (nucleus labeling by Hoechst 33258). […]

Q: For “ALSALSLGAEQRTESIIHRALYYDLISSPDIHGT [34-mer, corresponds to residues 88-121 of human PEDF]”, which “Effectiveness in treating osteoarthritis in a subject” value (shortened to “Effectiveness”) (osteoarthritis) is on record?
A: effective

Q: Which “Aggrecan Labeling Index (%)” value [1] does the source give for “EQRTESIIHRALYYDLIS (optionally in 5% hyaluronic acid) [18-mer, peptide lacking the SLGA residues; /HA = re-dissolved in 5% hyaluronic acid, reference compound]” here?
A: 31.8 ± 2.6%

Q: What about the “BrdU/Aggrecan Labeling Index (%)” value [2] of the same substance?
A: does not elicit such promoting effect

Q: And the “BrdU/Aggrecan Labeling Index (%)” value ([2]; listed as 18-mer/HA)?
A: 0.67 ± 0.33%

Q: And the “H&E histology of knee joint (morphological changes associated with osteoarthritis)” value [2]?
A: morphological changes associated with osteoarthritis (including the reduction of cartilage, the superficial fibrosis of cartilage and subchondral bone collapse) is noted

Q: And the “Effectiveness” value (osteoarthritis)?
A: fails to elicit any protection against osteoarthritis

Q: With “EQRTESIIHRALYYDLISSPDIHGT [25-mer, peptide lacking the SLGA residues]” as the substance, how does the “Effectiveness” value (osteoarthritis) read?
A: ineffective

Q: For “SLGAEQRTESIIHRALYYDL (optionally in 5% hyaluronic acid) [20-mer, residues 93-112 of human PEDF; /HA = re-dissolved in 5% hyaluronic acid]”, which “Chondrocyte growth and colony formation” value ([1]; vs vehicle group, FIG. 4A) is on record?
A: chondrocytes grew faster and aggregated into huge three dimensional colonies

Q: What about the “Aggrecan Labeling Index (%)” value [1] of the same substance?
A: 50.1 ± 3.6* %

Q: And the “Aggrecan Labeling Index (%)” value [3]?
A: 78.7 ± 3.8* %

Q: What about the “Aggrecan-positive cells among all cells (aggrecan/Hoechst 33258 dual staining)” value ([2]; FIG. 3 middle panels) of the same substance?
A: over 95%

Q: And the “Chondrocytes in cartilage layers, microscopic images” value [2]?
A: occupation of large numbers of newly generated chondrocyte throughout the cartilage

Q: And the “BrdU/Aggrecan Labeling Index (%)” value [2]?
A: 17.5 ± 2.7* %

Q: What about the “H&E histology of knee joint (morphological changes associated with osteoarthritis)” value [2] of the same substance?
A: the cartilage surface is smoother and the cartilage and subchondral bone are relatively integral

Q: What about the “Aggrecan-positive signals in cartilage (immunostaining)” value ([2]; superficial, transitional and deep zone, vs vehicle-treated knee, FIG. 3 left) of the same substance?
A: heavily accumulated

Q: And the “Numbers of BrdU-positive cells” value ([2]; vs vehicle/HA group, FIG. 3 right panels)?
A: increased significantly

Q: “SLGAEQRTESIIHRALYYDLISSP (optionally in 5% hyaluronic acid) [24-mer, residues 93-116 of human PEDF; /HA = re-dissolved in 5% hyaluronic acid]” was tested. Which “Aggrecan Labeling Index (%)” value [1] did it give?
A: 50.0 ± 2.9* %

Q: What about the “Aggrecan Labeling Index (%)” value [3] of the same substance?
A: 78.8 ± 4.3* %

Q: And the “BrdU/Aggrecan Labeling Index (%)” value [2]?
A: 16.0 ± 2.03* %

Q: Which results are given for “SLGAEQRTESIIHRALYYDLISSPDIHGT (optionally in 5% hyaluronic acid) [29-mer, residues 93-121 of human PEDF; /HA = re-dissolved in 5% hyaluronic acid]”?
A: Aggrecan Labeling Index (%) [1]: 52.2 ± 5.2* %; Aggrecan Labeling Index (%) [3]: 76.8 ± 5.0* %; Chondrocytes in cartilage layers, microscopic images [2]: occupation of large numbers of newly generated chondrocyte throughout the cartilage; BrdU/Aggrecan Labeling Index (%) [2]: 15.0 ± 2.38* %

Q: “hyaluronic acid [HA, reference compound]” was tested. Which “BrdU/Aggrecan Labeling Index (%)” value [2] did it give?
A: 0.71 ± 0.28%
